Paper PMC11954145, “Antimicrobial and ADME properties of methoxylated, methylated and nitrated 2-hydroxynaphthalene-1 carboxanilides” (ADMET & DMPK, 2025)
Values after ≈ are worked out from the molar mass of the structure shown. Values joined by “and” are separate entries in the source; they are usually repeats but may differ in a detail not shown here. Equal values may be shown once. Read-outs that look alike come from different tables or passages of the source.

Tests used:
[1] = Cytotoxicity assay (LDH); conditions: human
Experimental: Cytotoxicity of the compounds was determined using an LDH assay kit (Roche Diagnostics, Mannheim, Germany) as described previously. Human monocytic leukemia THP-1 cells (European Collection of Cell Cultures, Salisbury, UK) were exposed for 24 h at 37 °C to various compound concentrations ranging from 0.37 to 30 μM in RPMI 1640 medium. For LDH assays, cells were seeded into 96-well plates (5×10^4 cells/well in 100 μL culture medium) in triplicate in serum-free RPMI 1640 medium and measurements were taken 24 h after the treatment with the compounds. The maximum concentration of DMSO (Sigma) in the assays never exceeded 0.1 %. […] The median lethal dose values, LC50, were deduced through the production of a dose-response curve. All data from three independent experiments were evaluated using GraphPad Prism 5.00 software (GraphPadSoftware, San Diego, CA, USA).

[2] = Lipophilicity determination by RP-HPLC (log k, log D); type: physicochemical; conditions: for log D6.5: RP-HPLC C18, MeOH 72 % / acetate-buffered saline pH 6.5; for log D7.4: RP-HPLC C18, MeOH 72 % / acetate-buffered saline pH 7.4; for log k (logarithm of the capacity factor): RP-HPLC C18, MeOH 72 % / water 28 %
From the text: An HPLC system Agilent 1200 equipped with a DAD detector (Agilent, Santa Clara, CA, USA) was used. A chromatographic column Symmetry® C18 5 μm, 4.6×250 mm, part No. WAT054275 (Waters Corp., Milford, MA, USA) was used. The HPLC separation process was monitored and evaluated with EZChrom Elite software ver. 3.3.2 (Agilent). Isocratic elution by a mixture of MeOH p.a. (72 %) and H2O-HPLC Mili-Q grade (28 %) as a mobile phase was used for the determination of capacity factor k. Isocratic elution by a mixture of MeOH p.a. (72 %) and acetate-buffered saline (pH 7.4 and pH 6.5) (28 %) as a mobile phase was used for the determination of distribution coefficients expressed as D7.4 and D6.5. The total flow of the column was 1.0 mL min^-1, the injection volume was 20 μL, the column temperature was 40 °C, and the sample temperature was 10 °C. The detection wavelength of 210 nm was chosen. A KI methanolic solution was used to determine the dead times (tD). Retention times (tR) were measured in minutes. The capacity factors k were calculated according to the formula k = (tR–tD)/tD, where tR is the retention time of the solute, and tD is the dead time obtained using an unretained analyte. The distribution coefficients DpH were calculated according to the formula DpH = (tR–tD)/tD. Each experiment was repeated three times.
The capacity factor and distribution coefficients were measured by RP-HPLC on a C18 column with methanol as an organic modifier of the mobile phase. In addition to the experimental lipophilicities, predicted log P values were also calculated using ACD/Percepta, see Table 1. […] The values of σ(Ar) are found in a wide range from 0.01 to 1.36, so the compounds contain substituents with both electron-donating and slightly electron-withdrawing properties.

[3] = system: S. aureus ATCC 29213; assay: Antibacterial screening, broth microdilution MIC; type: cell-based; conditions: Staphylococcus aureus, ATCC29213; ATCC 29213, 24 h at 37 °C; read-out: MIC S. aureus
[4] = system: MRSA 63718; assay: Antibacterial screening, broth microdilution MIC; type: cell-based, methicillin-resistant S. aureus; conditions: Staphylococcus aureus, read-out: MIC MRSA 63718
[5] = system: MRSA SA 630; assay: Antibacterial screening, broth microdilution MIC; type: cell-based, methicillin-resistant S. aureus; conditions: Staphylococcus aureus, read-out: MIC MRSA SA 630
[6] = system: MRSA SA 3202; assay: Antibacterial screening, broth microdilution MIC; type: cell-based, methicillin-resistant S. aureus; conditions: Staphylococcus aureus, clinical isolate, 24 h at 37 °C, read-out: MIC MRSA SA 3202
[7] = system: Enterococcus faecalis ATCC 29212; assay: Antibacterial screening, broth microdilution MIC; type: cell-based; conditions: read-out: MIC E. faecalis
[8] = system: VRE 342B; assay: Antibacterial screening, broth microdilution MIC; type: cell-based, vancomycin-resistant E. faecalis; conditions: Enterococcus, vanA isolate, 24 h at 37 °C, read-out: MIC VRE 342B
[9] = system: VRE 725B; assay: Antibacterial screening, broth microdilution MIC; type: cell-based, vancomycin-resistant E. faecalis; conditions: Enterococcus, vanA isolate, 24 h at 37 °C, read-out: MIC VRE 725B
[10] = system: VRE 368; assay: Antibacterial screening, broth microdilution MIC; type: cell-based, vancomycin-resistant E. faecalis; conditions: Enterococcus, read-out: MIC VRE 368
[11] = system: E. coli ATCC 25922; assay: Antibacterial screening, broth microdilution MIC; type: cell-based; conditions: Escherichia coli, ATCC25922; ATCC 25922, 24 h at 37 °C
[12] = system: Mycobacterium tuberculosis ATCC 25177/H37Ra; assay: Antimycobacterial screening, broth dilution MIC (Alamar blue); type: cell-based; conditions: 336 h, H37Ra, 14 days at 37 °C, Alamar blue, read-out: MIC M. tuberculosis
Experimental: The evaluation of in vitro antimycobacterial activity of the compounds was performed against Mycobacterium tuberculosis ATCC 25177/H37Ra, Mycobacterium kansasii DSM 44162 and Mycobacterium smegmatis ATCC 700084.
The broth dilution micro-method in Middlebrook 7H9 medium (Difco, Lawrence, KS, USA) supplemented with ADC Enrichment (Difco) was used to determine the minimum inhibitory concentration (MIC) as previously described. […] The final concentrations of the evaluated compounds, ranging from 256 to 0.125 μg mL^-1, were obtained by twofold serial dilution of the stock solution in a microtiter plate with a sterile medium. Bacterial inocula were prepared by transferring colonies from culture to sterile water. The plate was inoculated by tested microorganisms. The final concentration of bacterial cells was 1.5×10^6 for M. tuberculosis and 10^5 cells in a microtiter plate for other mycobacteria. Isoniazid and rifampicin (Sigma) were used as reference antimycobacterial drugs. Drug-free controls, sterility controls, and controls consisting of medium and DMSO alone were included. The plates were incubated for a defined time at an appropriate temperature (3 days at 37 °C for M. smegmatis, and 14 days at 37 °C for M. tuberculosis and M. kansasii). […] The MICs against M. tuberculosis were evaluated by Alamar blue (Oxoid). After incubation, 10 % of Alamar blue was added to each well, and the plate was incubated for 24 h. The MIC values were assessed as the lowest concentration of the tested compounds, which prevented changing blue resazurin to pink resorufin. The experiments were repeated three times. The minimum inhibitory concentrations (MICs) were defined as the lowest concentration of the compound at which no visible bacterial growth was observed. The MIC value is routinely and widely used in bacterial assays and is a standard detection limit according to the CLSI [60].

[13] = system: Mycobacterium kansasii DSM 44162; assay: Antimycobacterial screening, broth dilution MIC; type: cell-based; conditions: DSM44162, 336 h, read-out: MIC M. kansasii
[14] = system: Mycobacterium smegmatis ATCC 700084; assay: Antimycobacterial screening, broth dilution MIC; type: cell-based; conditions: Mycolicibacterium smegmatis, ATCC700084, 72 h, read-out: MIC M. smegmatis
[15] = system: human monocytic leukemia THP-1 cells; conditions: cited from earlier work
[16] = ATCC29212, ATCC 29212, 24 h at 37 °C
[17] = clinical isolate, 24 h at 37 °C

Structure (SMILES)	CC50 at 24 h [1] [µM]	log D6.5 [2]	log D7.4 [2]	log k (logarithm of the capacity factor) [2]	MIC [3] [µM]	MIC [6] [µM]	MIC [7, 16] [µM]	MIC [8] [µM]	MIC [9] [µM]	MIC ([10]; vanA isolate, 24 h at 37 °C) [µM]	MIC [11] [µM]	MIC [12] [µM]	MIC ([13]; DSM 44162, 14 days at 37 °C) [µM]	MIC [4, 17] [µM]	MIC [5, 17] [µM]	MIC ([14]; ATCC 700084, 3 days at 37 °C) [µM]	other results
CC[C@@]1(O)C(=O)OCc2c1cc1n(c2=O)Cc2cc3ccccc3nc2-1 [CMP, camptothecin, reference compound]	0.16 ± 0.07	–	–	–	–	–	–	–	–	–	–	–	–	–	–	–	–
COc1cc(NC(=O)c2c(O)ccc3ccccc23)cc(OC)c1 [Compound 6, N-(3,5-Dimethoxyphenyl)-2-hydroxynaphthalene-1-carboxamide]	> 30	0.0411	0.0490	0.0388	198 (≈ 64 µg/mL)	198 (≈ 64 µg/mL)	792 (≈ 256 µg/mL)	792 (≈ 256 µg/mL)	792 (≈ 256 µg/mL)	792 (≈ 256 µg/mL)	792 (≈ 256 µg/mL)	396 (≈ 128 µg/mL)	98.9 (≈ 32 µg/mL)	–	–	–	MIC ([4]; 24 h): 396 µM (≈ 128 µg/mL); MIC ([5]; 24 h): 396 µM (≈ 128 µg/mL); MIC [14]: 396 µM (≈ 128 µg/mL)
Cc1cc(C)cc(NC(=O)c2c(O)ccc3ccccc23)c1 [Compound 13, N-(3,5-Dimethylphenyl)-2-hydroxynaphthalene-1-carboxamide]	> 30	0.3429	0.3480	0.3367	54.9 (≈ 16 µg/mL)	54.9 (≈ 16 µg/mL)	879 (≈ 256 µg/mL)	879 (≈ 256 µg/mL)	879 (≈ 256 µg/mL)	879 (≈ 256 µg/mL)	879 (≈ 256 µg/mL)	439 (≈ 128 µg/mL)	110 (≈ 32 µg/mL)	54.9 (≈ 16 µg/mL)	54.9 (≈ 16 µg/mL)	220 (≈ 64.1 µg/mL)	–
Cc1ccc(C(F)(F)F)cc1NC(=O)c1c(O)ccc2ccccc12 [Compound 22, 2-Hydroxy-N-[2-methyl-5-(trifluoromethyl)phenyl]naphthalene-1-carboxamide]	> 30	0.3444	0.3440	–	2.9 (≈ 1 µg/mL)	2.9 (≈ 1 µg/mL)	–	92.6 (≈ 32 µg/mL)	92.6 (≈ 32 µg/mL)	–	23.2 (≈ 8.01 µg/mL)	46.3 (≈ 16 µg/mL)	–	5.79 (≈ 2 µg/mL)	2.9 (≈ 1 µg/mL)	23.2 (≈ 8.01 µg/mL)	MIC ([7]; ATCC29212, 24 h): 46.3 µM (≈ 16 µg/mL); MIC ([10]; 24 h): 46.3 µM (≈ 16 µg/mL); MIC [13]: 46.3 µM (≈ 16 µg/mL)
Cc1ccc(NC(=O)c2c(O)ccc3ccccc23)cc1C(F)(F)F [Compound 23, 2-Hydroxy-N-[4-methyl-3-(trifluoromethyl)phenyl]naphthalene-1-carboxamide]	–	0.4621	0.4636	0.46 and 0.4605	23.2 (≈ 8.01 µg/mL)	46.3 (≈ 16 µg/mL)	741 (≈ 256 µg/mL)	741 (≈ 256 µg/mL)	741 (≈ 256 µg/mL)	741 (≈ 256 µg/mL)	741 (≈ 256 µg/mL)	371 (≈ 128 µg/mL)	741 (≈ 256 µg/mL)	–	92.7 (≈ 32 µg/mL)	46.3 (≈ 16 µg/mL)	MIC ([4]; 24 h): 371 µM (≈ 128 µg/mL)
O=C(Nc1ccc([N+](=O)[O-])cc1)c1c(O)ccc2ccccc12 [Compound 26, 2-hydroxy-N-(4-nitrophenyl)naphthalene-1-carboxamide]	–	0.0862	0.0879	0.0984	> 830	–	415 (≈ 128 µg/mL)	830 (≈ 256 µg/mL)	830 (≈ 256 µg/mL)	830 (≈ 256 µg/mL)	830 (≈ 256 µg/mL)	104 (≈ 32.1 µg/mL)	415 (≈ 128 µg/mL)	830 (≈ 256 µg/mL)	415 (≈ 128 µg/mL)	208 (≈ 64.1 µg/mL)	CC50 [15]: 2.5 ± 0.1 µM
O=C(Nc1ccc([N+](=O)[O-])c(C(F)(F)F)c1)c1c(O)ccc2ccccc12 [Compound 27, 2-Hydroxy-N-[4-nitro-3-(trifluoromethyl)phenyl]naphthalene-1-carboxamide]	> 30	0.3282	0.3220	–	0.332 (≈ 0.125 µg/mL)	1.33 (≈ 0.5 µg/mL)	21.3 (≈ 8.01 µg/mL)	42.5 (≈ 16 µg/mL)	42.5 (≈ 16 µg/mL)	21.3 (≈ 8.01 µg/mL)	680 (≈ 256 µg/mL)	85 (≈ 32 µg/mL)	21.3 (≈ 8.01 µg/mL)	1.33 (≈ 0.5 µg/mL)	1.33 (≈ 0.5 µg/mL)	21.3 (≈ 8.01 µg/mL)	–
